From patent US12122816B2, “Long acting peptide tyrosine tyrosine (PYY) analogs and methods of use” (Intarcia Therapeutics, Inc., priority 2020, dated 2024)
Like-named read-outs stand apart in the source and are kept apart here.

Legend:
[1] = In vitro stability in subcutaneous (SC) tissue homogenates; type: in vitro ADME; conditions: subcutaneous tissue homogenate, pH 7.4; human SC tissue homogenate 1.0 mg protein/mL, 10 mcM peptide, 37° C.; read-out: (H)SC tissue stability t½ (converted)
Protocol: In vitro incubations in subcutaneous (SC) tissue homogenates were used to characterize the ability of peptides to resist pre-systemic degradation by proteases and peptidases after SC administration. […] Peptides with high SC bioavailability are stable in this assay, while peptides with low SC bioavailability are unstable in this assay.
Human SC tissue was homogenized in cold 25 mM HEPES buffer (pH 7.4, 10-fold volume based on sample weight), and then filtered through a double layer of cheesecloth. The filtrates were aliquoted, flash frozen on a methanol/dry ice bath and stored at −80° C. The protein concentration of each pooled batch was determined using the BCA protein assay. Thawed stocks of human SC tissue homogenates were diluted to 1.0 mg protein/mL in 25 mM HEPES buffer (pH 7.4) and aliquoted into a 96-well plate. The diluted SC homogenates were pre-warmed for 10 minutes at 37° C. […] Reactions were maintained at 37° C. in a shaking water bath. […] Quenched samples were centrifuged at 2178×g for 10 min and then a portion of the supernatants were transferred to a clean 96-well plate and diluted 1:10 with water. Samples were analyzed by UPLC-MS/MS.

[2] = In vitro metabolic stability in kidney brush border membranes (kBBM); type: in vitro ADME; conditions: 1 mcM peptide, 37° C.
Protocol: In vitro incubations in kidney brush border membrane (kBBM) preparations were used to characterize the ability of peptides to resist degradation by proteases and peptidases in the systemic circulation. kBBM were selected because they contain a high concentration of a diverse set of proteases and peptidases, many of which are present throughout the body.
Brush border membranes from rat and human kidney tissue were prepared via centrifugation and stored at −70° C. Thawed stocks of rat or human kBBM were diluted to the appropriate concentration in 25 mM HEPES buffer (pH 7.4) containing 1% casein and aliquoted into a 96-well plate. The kBBM solutions were pre-warmed for 10 minutes at 37° C. […] The final concentration of kBBM in each incubation was 50 mcg protein/mL. Reactions were maintained at 37° C. in a shaking water bath. […] Quenched samples were centrifuged at 2178×g for 10 min and then a portion of the supernatants were transferred to a clean 96-well plate and diluted 1:1 with water. Samples were analyzed by UPLC-MS/MS.

[3] = Solubility in DI water at room temperature (visual inspection); type: physicochemical; conditions: DI water, TFA salt form, read-out: Solubility (in Water, RT)
Protocol: The analog polypeptides described herein were tested for solubility in saline or in aqueous (DI water) at room temperature. Samples were visually inspected for clarity of the sample, any appearance of turbidity or haziness.

Compound: CC(C)C[C@H](NC(=O)[C@H](Cc1ccc(O)cc1)NC(=O)[C@H](Cc1c[nH]cn1)NC(=O)[C@H](CCCNC(=N)N)NC(=O)[C@H](CC(C)C)NC(=O)[C@H](CC(=O)O)NC(=O)[C@@H](CCCCNC(=O)CC[C@H](NC(=O)CC[C@H](NC(=O)CCCCCCCCCCCCCCCCCCC(=O)O)C(=O)O)C(=O)O)NC(=O)[C@H](Cc1ccc(O)cc1)NC(=O)[C@H](Cc1ccc(O)cc1)NC(=O)[C@H](CCCNC(=N)N)NC(=O)[C@H](CC(N)=O)NC(=O)[C@H](Cc1c[nH]c2ccccc12)NC(=O)[C@H](CCC(=O)O)NC(=O)[C@H](CCC(=O)O)NC(=O)[C@@H]1CCCN1C(=O)[C@H](CO)NC(=O)[C@H](C)NC(=O)[C@H](CC(=O)O)NC(=O)[C@H](CCCCN)NC(=O)CNC(=O)[C@@H]1CCCN1C(=O)[C@H](C)NC(=O)[C@H](CCC(=O)O)NC(=O)[C@@H]1CCCN1C(=O)[C@H](CCCCN)NC(=O)[C@@H]1CCCN1)C(=O)N[C@@H](CC(N)=O)C(=O)N[C@@H](Cc1c[nH]c2ccccc12)C(=O)N[C@@H](CC(C)C)C(=O)N[C@H](C(=O)N[C@@H](CCCNC(=N)N)C(=O)N[C@@H](CCC(N)=O)C(=O)N[C@@H](CCCNC(=N)N)C(=O)N[C@@H](Cc1ccccc1)C(N)=O)[C@@H](C)O [Compound A14]
- half-life at 10 mcM [1]: 4.5 h
- half-life at 1 mcM ([2]; pH 7.4, human kBBM 50 mcg protein/mL, read-out: hkBBM t½ (converted)): > 12 h
- half-life at 1 mcM ([2]; pH 7.4, rat kBBM 50 mcg protein/mL, read-out: rkBBM t½): > 12 h
- solubility [3]: 79 mg/mL
